# Data as given in patent US20240209376A1, “Specific Oligonucleotide-Programmed Readthrough of Nonsense Codons” (UNIVERSITY OF MASSACHUSETTS, priority 2021, published 2024).
# Entries after “also recorded” stand apart in the source; their conditions may differ.
# Legend:
# [1] = system: CAN1-luc expression construct premature stop codon; test: CAN1-luc expression construct readthrough (rabbit reticulocyte lysate); assay type: biochemical; settings: oligo at +8 position downstream of premature stop codon
# Description: FIG. 4 illustrates one embodiment of a CAN1 arginine permease gene/luciferase expression construct (Can1-1uc). Upper panel: A schematic of the construct showing the relative position of a premature stop codon and a Can1 open reading frame and a luciferase gene with a natural terminal stop codon. Lower panel: A deoxyribonucleic acid sequence of the Can1-1uc construct with a TGA premature stop codon and a deoxyribonucleic acid oligo hybridized to the Can1-1uc construct at the +8 nucleotide position downstream of the premature stop codon.
# FIG. 5 presents exemplary data showing readthrough of a CAN1-1uc expression construct premature stop codon with a DNA oligo hybridized at the +8 nucleotide position downstream of the premature stop codon.
# The DNA antisense oligos contemplated herein were validated using a DNA expression construct comprising a premature stop codon and a luciferase gene. The basic methodology was used a CAN1 gene expression construct encoding an arginine permease amino acid transporter protein. The CAN1 expression construct positions a […] premature stop codon at the terminus of the CAN1 open reading frame subsequently followed by a luciferase open reading frame. See, FIG. 4. The DNA antisense oligo +8(70) having the nucleic acid sequence of 5′-[…]-3′ was then positioned at the +8 nucleic acid position downstream of the first nucleotide of the premature stop codon. […]
# [2] = system: CFTR premature stop codon (G542X; UGAC, UGAG) mRNA; test: 511-565 CFTR nanoluciferase construct readthrough (RRL assay); assay type: biochemical; settings: for readthrough promotion by fluoride-modified oligos: RRL assay
# Description: (§1) FIG. 6 presents one embodiment of a cystic fibrosis gene/nanoluciferase expression construct (511-565 CFTR). Upper panel: A schematic of the construct showing the relative position of a premature stop codon (UGAG or UGAC) within a cystic fibrosis open reading frame (CFTR) and a luciferase gene with a natural terminal stop codon. Lower panel: A deoxyribonucleic acid sequence of the CFTR construct with a TGA premature stop codon and a deoxyribonucleic acid oligo hybridized to the CFTR construct at the +8 nucleotide position downstream of the premature stop codon.
# In one embodiment, the present invention contemplates a modified cystic fibrosis transmembrane conductance regulator (CFTR) deoxyribonucleic acid (DNA) construct. In one embodiment, the modified CFTR DNA construct comprises a CFTR open reading frame comprising a premature TGA stop codon. In one embodiment, the TGA premature stop codon is a G542X mutation. In one embodiment, the modified CFTR DNA construct further comprises a nanoluciferase gene and a natural stop codon. In one embodiment, the modified CFTR mRNA construct molecule is hybridized to a single stranded DNA antisense oligo at the +8 nucleotide position downstream of a TGA premature stop codon. In one embodiment, the DNA antisense oligo is 5′-[…]-3′. See, FIG. 6.
# (§2) A 511-565 CFTR DNA expression vector construct was designed with several different codon configurations: i) a single wild type sense codon (“GGAG”) and a subsequent wild-type stop codon; ii) a premature stop codon “TGAG” comprising a G542X mutation (e.g., a strong stop codon); and iii) a premature stop codon “TGAC” comprising a G542X mutation (a weak stop codon) rendering an artificial readthrough-prone context. […] See, FIG. 7.
# [3] = system: CFTR wild type construct without premature stop codon (GGAG); test: 511-565 CFTR nanoluciferase construct expression, wild type; assay type: biochemical; settings: increasing G418 concentrations
# Description: as §1
# FIG. 8 presents exemplary data showing the effect of the aminoglycoside G418 on 511-565 CFTR construct expression.
# as §2
# [4] = system: CFTR mRNA levels (NMD-mediator SMG1); test: mRNA analysis by qPCR in CFF-16HBEge cell lines; assay type: cell-based
# Description: The example presents the results of mRNA analysis by quantitative polymerase chain reaction and (qPCR) and protein analysis by Western Blot.
# [5] = cited from earlier work
# [6] = experimental data; cited from earlier work
molecule,measurement,setting,value
"5′-GCGCCGGGCCTTTCTTTATGTTTTTGGCGT-3′ (DNA, backbone and methylation of C not given here) [+8(70), DNA antisense oligo at +8 position of CAN1-luc construct]",readthrough of premature stop codon in CAN1-luc construct,[1],increases readthrough of a premature stop codon
CN[C@@H]1[C@@H](O)[C@@H](O[C@H]2[C@H](O)[C@@H](O[C@H]3O[C@H]([C@H](C)O)[C@@H](O)[C@H](O)[C@H]3N)[C@H](N)C[C@@H]2N)OC[C@]1(C)O [G418],"premature stop codon readthrough, G418 alone","[2]; UGAG and UGAC constructs, increasing G418 concentrations",promotes premature stop codon (UGAG and UGAC) readthrough in a concentration-dependent manner; also recorded: increasing expression of premature stop codon constructs
same,readthrough rate at 0.5 μM and 0.1 μM G418 versus 1 μM G418,"[2]; weak (UGAC) and strong (UGAG) premature codon, +8(66) combination experiment (FIG. 9)",significantly higher readthrough rate
same,"wild type sense codon (GGAG) construct expression, G418 alone",[3],inhibits wild type sense codon (GGAG) readthrough in a concentration-dependent manner; also recorded: decreases the expression of wild type construct
CCN(CC)S(=O)(=O)c1cc(Nc2nccc(-c3ccnc(-c4ccc(NC(=O)NC)cc4)c3)n2)ccc1Cl [SMG1i],CFTR WT mRNA,[4],smaller increase
same,mRNA levels of the PTC alleles,[4],restores mRNA levels of the PTC alleles
NC[C@H]1O[C@H](O[C@H]2[C@H](O)[C@@H](O[C@H]3O[C@H](CO)[C@@H](O)[C@H](N)[C@H]3O)[C@H](N)C[C@@H]2N)[C@H](N)C[C@@H]1O [tobramycin],"rise in NAG, once daily arm less than three times daily regimen",[5]; adults and children,33%
same,"elimination rate, once daily versus three times daily group",[5]; once daily group mostly dosed in the evening,lower elimination rate
same,serum creatinine level during the course of treatment,"[5]; paediatric group, single daily dose, compared with a rise with three divided doses",decreased
same,"efficacy, single daily versus multiple daily dosing regimen",[5]; patients with CF,equal efficacy
"TCCACTCAGTGTGATTCCAC^F (2'-fluoro at 20, other sugars and backbone not given here; one 2'-fluoro at 3'-terminal nucleotide) [+8(47) oligo withone 2′-fluoride modification]",readthrough promotion by fluoride-modified oligos,[2],promote readthrough in an RRL assay with improved stability and/or efficiency
U^FCCAC^FTCAG^FTGTG^FATTC^FCAC^F,readthrough promotion by fluoride-modified oligos,[2],promote readthrough in an RRL assay with improved stability and/or efficiency
gentamicin,relative toxicity among aminoglycosides,[6],more toxic than tobramycin and amikacin
